Laboratory results reported in US20230018989A1, “INHIBITING THE RNA […] METTL3 OR ITS INTERACTION WITH EIF3H TO […] ONCOGENE TRANSLATION AND TUMORIGENESIS” (Children's Medical Center Corporation, priority 2019, published 2023).

Columns and labels:
A549 cells [1] = test: MTS cell proliferation assay upon JQ1 treatment; assay type: cell-based, human; conditions: 500 nM JQ1; METTL3 depleted A549 cells compared with control A549 cells
Protocol: FIGS. 7A-7N. METTL3 promotes translation of a large subset of mRNAs. (FIGS. 7A-7E) Global profiling of METTL3 target genes in HeLa. Cytoplasmic extracts from control or METTL3 depleted cells were subjected to sucrose gradient centrifugation. Total RNA, RNA from sub-polysome fractions and RNA from polysome fractions were analyzed by RNA-seq. (FIG. 7A) Peak analysis of polysome profiling. (FIG. 7B) Scatter plot of RNA-Seq data in METTL3 knockdown (shMETTL3) and control (shGFP) HeLa cells. Average read number from two individual METTL3 knockdown is plotted on the y-axis. (FIG. 7C) Scatter plot of RNA-Seq data in shMETTL3 and shGFP HeLa cells. Average read number from two shMETTL3 samples were calculated by the ratio of polysome fraction to the read number in the sub-polysome fraction and plotted on the y-axis. […] (FIG. 7N) Quantification of apoptotic cells, numbers represent ratio between death cells in JQ1 and DMSO treatments. […]
Cell proliferation and apoptosis assays were performed as described previously^8. […] Absorbances at 490 nm were measured using CellTiter 96 AQueous One Solution Cell Proliferation Assay kit (Promega) on day 2, day 4, and day 6 to measure the cellular proliferation. The numbers of apoptotic cells were quantified by flow cytometric assays using Annexin V-FITC Apoptosis Detection Kit (BioVision) five days after 500 nM of JQ1 treatment and cell seeding.

A549 cells [2] = test: Annexin V/PI apoptosis assay (FACS) upon JQ1 treatment; assay type: cell-based, human; conditions: 500 nM JQ1, five days; METTL3 depleted A549 cells compared with control A549 cells
Protocol: FIGS. 7A-7N. METTL3 promotes translation of a large subset of mRNAs. (FIGS. 7A-7E) Global profiling of METTL3 target genes in HeLa. Cytoplasmic extracts from control or METTL3 depleted cells were subjected to sucrose gradient centrifugation. Total RNA, RNA from sub-polysome fractions and RNA from polysome fractions were analyzed by RNA-seq. (FIG. 7A) Peak analysis of polysome profiling. (FIG. 7B) Scatter plot of RNA-Seq data in METTL3 knockdown (shMETTL3) and control (shGFP) HeLa cells. Average read number from two individual METTL3 knockdown is plotted on the y-axis. (FIG. 7C) Scatter plot of RNA-Seq data in shMETTL3 and shGFP HeLa cells. Average read number from two shMETTL3 samples were calculated by the ratio of polysome fraction to the read number in the sub-polysome fraction and plotted on the y-axis. (FIG. 7D) Venn diagram showing the overlap of 2-fold less translated genes and METTL3 PAR-CLIP data. […] (FIG. 7N) Quantification of apoptotic cells, numbers represent ratio between death cells in JQ1 and DMSO treatments. […]
FIGS. 9A-9E. […] (FIG. 9B) Density plot reflects the distribution of changes in percent spliced In (APSI) values and according p-values for alternative splicing events detected by rMATs v3.2.5. […] (FIG. 9E) Annexin V/PI staining of METTL3 knockdown and control A549 cells upon JQ1 treatment that was analyzed by FACS. […]

[3] = molecular target: eIF3h (endogenous, in cells) (human) (UniProt O15372); test: cell-based or functional assay
Sequence of UniProt O15372 (O15372 whole entry): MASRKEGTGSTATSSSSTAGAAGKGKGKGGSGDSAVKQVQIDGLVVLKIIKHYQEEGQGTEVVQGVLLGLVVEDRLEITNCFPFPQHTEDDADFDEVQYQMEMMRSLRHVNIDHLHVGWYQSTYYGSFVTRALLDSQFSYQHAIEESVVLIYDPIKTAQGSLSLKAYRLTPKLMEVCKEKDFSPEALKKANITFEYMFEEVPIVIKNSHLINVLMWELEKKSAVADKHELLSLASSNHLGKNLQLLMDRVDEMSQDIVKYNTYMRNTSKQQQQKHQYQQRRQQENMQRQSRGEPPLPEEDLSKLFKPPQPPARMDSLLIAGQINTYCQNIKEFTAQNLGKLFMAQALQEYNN

Compound	cellular proliferation (OD490), JQ1 versus DMSO (A549 cells [1])	number of apoptotic cells, JQ1 versus DMSO (A549 cells [2])	translation efficiency of reporter mRNA (tethering assay, FLuc-MS2bs, with control siRNA or eIF3h knockdown) [3]
Cc1sc2c(c1C)C(c1ccc(Cl)cc1)=N[C@@H](CC(=O)OC(C)(C)C)c1nnc(C)n1-2 [JQ1]	stronger proliferation defect	increased the number of apoptotic cells	–
FLAG-MS2-METTL3 (from UniProt Q86U44 1-580)	–	–	2 fold
